US20250280861A1, “SWEETENER COMPOSITIONS” (Firmenich Incorporated, priority 2022, published 2025)

Assays:
[1] = tested on: panelists; assay: sweet enhancement taste tests (paired comparison, panelists choose the sweeter sample); type: in vivo, human; details: for HFCS and sucrose sweet enhancement effect: taste tests, pH 2.8, concentration far below its sweetness threshold
Procedure: Test samples containing either a sweetener (sucrose or high-fructose corn syrup (HFCS)) alone or in combination with a test compound were presented in pairs to a group of panelists who were asked to determine which of the samples was sweeter. Subjects refrained from eating or drinking (except water) for at least 1 hour prior to the test. Subjects rinsed with water several times to clean the mouth. The samples within a paired comparison test were presented in a randomized, counterbalanced order. Panelists had up to a 1 minute delay between taste tests to clear the mouth of any tastes. Binomial probability tables were used to determine the probability of the correct number of responses occurring for each test at alpha-0.05.

[2] = molecular target: T1, hT1R2/T1R3 taste receptor (Homo sapiens, UniProt Q7RTX0+Q8TE23); assay: agonist activity against the hT1R2/T1R3 taste receptor (sweet receptor based assay); type: cell-based; details: agonist activity, hT1R2/T1R3; read-out: Sweet EC50
T1 sequence (Q8TE23 20-839): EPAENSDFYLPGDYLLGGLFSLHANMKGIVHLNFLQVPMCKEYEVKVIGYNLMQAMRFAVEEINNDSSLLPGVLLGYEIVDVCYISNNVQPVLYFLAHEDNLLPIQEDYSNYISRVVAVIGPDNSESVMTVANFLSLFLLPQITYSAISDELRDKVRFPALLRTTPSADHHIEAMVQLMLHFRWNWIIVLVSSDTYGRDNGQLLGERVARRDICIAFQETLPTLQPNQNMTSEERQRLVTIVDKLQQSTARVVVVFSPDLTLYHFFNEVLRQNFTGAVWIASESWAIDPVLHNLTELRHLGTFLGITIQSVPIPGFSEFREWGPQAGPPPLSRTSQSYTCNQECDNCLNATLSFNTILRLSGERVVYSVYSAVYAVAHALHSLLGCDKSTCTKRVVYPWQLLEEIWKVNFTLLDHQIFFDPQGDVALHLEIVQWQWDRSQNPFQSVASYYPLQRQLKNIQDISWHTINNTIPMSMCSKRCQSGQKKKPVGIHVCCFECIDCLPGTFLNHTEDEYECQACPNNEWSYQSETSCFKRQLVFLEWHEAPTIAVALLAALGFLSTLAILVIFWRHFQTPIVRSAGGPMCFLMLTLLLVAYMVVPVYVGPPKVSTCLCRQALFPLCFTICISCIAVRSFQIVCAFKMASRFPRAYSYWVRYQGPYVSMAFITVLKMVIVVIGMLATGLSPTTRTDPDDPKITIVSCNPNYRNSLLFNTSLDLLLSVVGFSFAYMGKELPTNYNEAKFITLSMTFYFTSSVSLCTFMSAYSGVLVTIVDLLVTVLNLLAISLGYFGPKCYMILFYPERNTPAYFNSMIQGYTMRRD
T1 sequence (Q7RTX0 21-852): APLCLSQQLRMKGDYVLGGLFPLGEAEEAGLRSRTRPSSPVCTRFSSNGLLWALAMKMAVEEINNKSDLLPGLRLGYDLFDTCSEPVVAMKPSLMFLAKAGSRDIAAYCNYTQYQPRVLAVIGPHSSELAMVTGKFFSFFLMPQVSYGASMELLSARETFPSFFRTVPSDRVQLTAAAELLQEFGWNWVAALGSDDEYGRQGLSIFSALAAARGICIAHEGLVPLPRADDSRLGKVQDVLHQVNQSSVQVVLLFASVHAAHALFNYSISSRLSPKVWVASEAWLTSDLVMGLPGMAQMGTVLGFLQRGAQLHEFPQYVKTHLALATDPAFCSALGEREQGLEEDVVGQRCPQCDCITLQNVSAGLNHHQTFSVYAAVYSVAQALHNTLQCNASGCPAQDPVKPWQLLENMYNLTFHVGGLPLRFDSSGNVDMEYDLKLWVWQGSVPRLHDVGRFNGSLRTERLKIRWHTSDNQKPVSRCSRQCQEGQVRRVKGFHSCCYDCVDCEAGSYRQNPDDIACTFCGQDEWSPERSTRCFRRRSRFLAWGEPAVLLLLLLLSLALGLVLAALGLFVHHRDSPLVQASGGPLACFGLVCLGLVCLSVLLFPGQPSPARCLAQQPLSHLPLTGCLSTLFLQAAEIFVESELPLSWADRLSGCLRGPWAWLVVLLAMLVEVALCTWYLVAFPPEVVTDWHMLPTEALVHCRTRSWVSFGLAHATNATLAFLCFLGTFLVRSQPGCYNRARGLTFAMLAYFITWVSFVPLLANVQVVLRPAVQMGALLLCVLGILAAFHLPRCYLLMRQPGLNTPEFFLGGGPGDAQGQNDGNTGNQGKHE
Procedure: Compounds described in this application show moderate to potent agonist effect on the sweet receptor based assay. Potencies (EC50 values, e.g. see Tables 1-3) for agonist activity were measured against the hT1R2/T1R3 taste receptor. FIG. 1 exemplifies the data generated during the screening to determine EC50 values.

[3] = Study 1: 10 ppm Compound 78 vs 1.5% Sucrose, pH 2.8
[4] = Study 2: 7 ppm Compound 78 + 6% sucrose vs 8% Sucrose

Row | EC50 [2] | SMILES | Results (which of the samples was sweeter) [1, 3] | Results (which of the samples was sweeter) [1, 4] | Results (which of the samples was sweeter) ([1]; Study 3: 9 ppm Compound 78 + 6% HFCS vs 8% HFCS) | HFCS and sucrose sweet enhancement effect [1] | HFCS and sucrose sweet enhancement effect ([1]; listed as compound 78) | sweetness compared with 1.5% sucrose ([1]; test #1, 10 ppm, pH 2.8) | sweetness compared with 8% sucrose ([1]; test #2, 10 ppm of compound 78+6% sucrose)
1 | 1300 nM | COCc1cccc(C2CCN(C(COC)C(=O)NCC(C)C)CC2)c1F (stereo not shown) [Compound 78, 2-(4-(2-fluoro-3-(methoxymethyl)phenyl)piperidin-1-yl)-N-isobutyl-3-methoxypropanamide] | 9 | 21 | 22 | remarkable HFCS and Sucrose sweet enhancement effect | significant enhancement | significantly less sweet | no significant difference in sweetness
2 | – | OC[C@H]1O[C@@](CO)(O[C@H]2O[C@H](CO)[C@@H](O)[C@H](O)[C@H]2O)[C@@H](O)[C@@H]1O [Sucrose, sucrose, reference compound] | 42 | 24 | – | – | – | – | –
